Measured values taken from patent publication US20100120701A1, “Compositions and Methods For Engineering Probiotic Yeast” (Glycosyn, Inc., priority 2008, published 2010).

B1: UEA I: ligand (lectin) that binds to H-2 (protein, UniProt P22972 1-243, looked up)
Anti-H(O) lectin 1: SDDLSFKFKNFSQNGKDLSFQGDASVIETGVLQLNKVGNNLPDETGGIARYIAPIHIWNCNTGEVASFITSFSFFMETSANPKAATDGLTFFLAPPDSPLRRAGGYFGLFEDTKDNDSSYQTVAVEFDTIGSPVNFDDPGFPHIGIDVNRVKSINAERWNKRYGLNNVANVEIIYEASSKTLTASLTYPSDQTSISVTSIVDLKEILPEWVSVGFSGGTYIGRQATHEVLNWYFTSNLINTNS

Legend:
calicivirus diarrhea = assay: Calicivirus diarrhea in breastfed infants by milk oligosaccharide level; format: in vivo, human; conditions: 93 nursing children consuming milk with high amounts; Poisson regression, P=0.012
Protocol: Milk samples were obtained weeks 2-5 postpartum from 93 Mexican mothers; the mothers and infants were followed from birth up to 2 yr postpartum. The clinical histories of the infants were recorded prospectively, and concentrations of individual oligosaccharides in these milk samples were measured. The most common oligosaccharides in maternal milk were those that were fucosylated, comprising 73% (50%-92%) of total oligosaccharide. Of these, 2′FL, the oligosaccharide homolog of the Lewis H-2 epitope, was the most common in the milks of all mothers. The mean concentration of 2′FL in milk was 3854±108 nmol/mL (34% of total fucosylated oligosaccharides), but varied greatly among mothers according to their Lewis blood group type.
Thus, human milk containing high levels of specific oligosaccharides are associated with decreased risk of pathogen-specific diarrhea and diarrhea overall. […] Because both the oligosaccharide and the high-molecular-weight glycans that share the same glycan epitope are synthesized by the same fucosyltransferase, the relationship between the oligosaccharide expression in milk and decreased risk in the infant reflects the synthetic capacity of the mother for both the free oligosaccharide and the homologous glycan. Specific human milk oligosaccharides protect breastfed children from disease by inhibiting binding of pathogens to the child's intestinal receptors.

Campylobacter jejuni = assay: C. jejuni binding to CHO cells transfected with a human α(1,2)-fucosyltransferase gene; format: cell-based; conditions: CHO cells overexpressing H-2 antigen

Molecule | protection against calicivirus diarrhea (calicivirus diarrhea) | inhibition of C. jejuni binding to transfected CHO cells (Campylobacter jejuni)
CC(=O)N[C@H]1[C@H](O[C@H]2[C@@H](O)[C@@H](CO)O[C@@H](O[C@H]3[C@H](O)[C@@H](O)C(O)O[C@@H]3CO)[C@@H]2O)O[C@H](CO)[C@@H](O[C@@H]2O[C@@H](C)[C@@H](O)[C@@H](O)[C@@H]2O)[C@@H]1O[C@@H]1O[C@H](CO)[C@H](O)[C@H](O)[C@H]1O[C@@H]1O[C@@H](C)[C@@H](O)[C@@H](O)[C@@H]1O (some centres unmarked) [LDFH-I] | associated with protection | –
B1 | – | inhibited
